One may read the pIC50 as the negative decadic logarithm of the IC50, by convention in mol/L.

pIC50: −log10 of the molar value.

T1 sequence (P06239 whole entry): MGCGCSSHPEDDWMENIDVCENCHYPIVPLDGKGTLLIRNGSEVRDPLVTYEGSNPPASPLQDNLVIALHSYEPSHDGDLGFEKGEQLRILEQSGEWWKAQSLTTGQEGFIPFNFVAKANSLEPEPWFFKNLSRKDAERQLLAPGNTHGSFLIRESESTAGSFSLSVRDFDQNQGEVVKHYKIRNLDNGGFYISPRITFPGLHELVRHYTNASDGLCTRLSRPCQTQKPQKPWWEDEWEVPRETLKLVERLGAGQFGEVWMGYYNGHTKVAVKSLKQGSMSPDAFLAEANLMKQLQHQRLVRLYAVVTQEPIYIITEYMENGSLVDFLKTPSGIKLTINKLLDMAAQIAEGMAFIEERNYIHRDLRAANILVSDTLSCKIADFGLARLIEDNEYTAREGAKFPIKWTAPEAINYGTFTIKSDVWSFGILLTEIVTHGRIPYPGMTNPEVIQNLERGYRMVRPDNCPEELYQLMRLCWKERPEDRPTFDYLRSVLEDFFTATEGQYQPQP

This assay concerns the target T1, N-terminal His6-tagged recombinant full-length human Lck (Homo sapiens, UniProt P06239).
T1 construct: N-terminal His6-tagged recombinant full-length human Lck; His6 (N); purchased Millipore
The assay is described as follows: Lck IMAP assay. The assay is classed as biochemical. The note with it: ATP 6 μM (KM,ATP), enzyme pre-incubated with compounds for 60 minutes, values given as bins. The source says: Inhibition of kinase activity can be measured using the Immobilized Metal Assay for Phosphochemicals (IMAP) assay. IMAP is a homogeneous fluorescence polarization (FP) assay based on affinity capture of phosphorylated peptide substrates. IMAP uses fluorescein-labeled peptide substrates that, upon phosphorylation by a protein kinase, bind to so-called IMAP nanoparticles, which are derivatized with trivalent metal complexes. Binding causes a change in the rate of the molecular motion of the peptide, and results in an increase in the FP value observed for the fluorescein label attached to the substrate peptide (Gaudet et al. A homogeneous fluorescence polarization assay adaptable for a range of protein serine/threonine and tyrosine kinases. J. Biomol. Screen (2003) 8, 164-175).
Enzyme used was N-terminal His6-tagged recombinant full-length human Lck from Millipore. Phosphorylation substrate was a fluorescein-labeled peptide (5FAM-KVEKIGEGTYGVV—NH2) derived from p34cdc2 from Molecular Devices. Enzymes, substrate and ATP were diluted in Kinase Reaction buffer (10 mM Tris-HCl, 10 mM MgCl2, 0.01% Tween-20, 0.05% NaN3 pH 7.2, 1 mM DTT (dithiotreitol). The final volume at the kinase reaction step of the assay in the 384-well plate was 20 μl. Final amount of enzyme in the reaction was 0.1 U/ml. Enzyme was pre-incubated with compounds diluted in 1% DMSO (dimethylsulfoxide) for 60 minutes at room temperature in the dark. Subsequently, peptide substrate to a final concentration of 100 nM, and ATP to a final concentration of 6 μM were added and the mix was incubated for 120 minutes at room temperature in the dark. IMAP progressive binding buffer (75% 1× buffer A, 25% 1× buffer B with 1:600 Progressive Binding Reagent; Molecular Devices) was added, followed by an incubation step of 60 minutes at room temperature in the dark. Finally, the FP signal was read on an Envision Multilabel reader (Perkin Elmer).
All biochemical assays were run at KM,ATP of the enzyme using non-saturated conditions, meaning that during the incubation time it was assured that the signal increase was linear with time. For all biochemical assays a reference standard was used on each plate.
Ten point serial dilutions using a √10 dilution factor were used for dose response testing of compounds. Starting concentration was 10^-6M for Lck IMAP assays. Dose-response curves were run as two experiments on duplicate plates (N=1; n=2). All data was normalized to percentage effect based on maximum (Max) and minimum (Min) control values. On every 384 assay plate 16 wells were used as minimum wells (wells with ATP, 0% effect) and 16 wells were used as maximum wells (wells without ATP, 100% effect). 16 wells were used for measuring the background signal, obtained from a kinase reaction containing all constituents except the labeled peptide substrate. Percentage effect was plotted against log dilution concentration of compound to obtain sigmoid dose response curves. pIC50 values were calculated using ActivityBase.
Take `CNC[C@]1(O)CC[C@H](c2nc(-c3ccc(NC(=O)c4cc5c(OC)cccc5n4C)c(OC)c3)c3c(C)nccn32)CC1` [Example 72, N-(4-(3-((trans)-4-hydroxy-4-((methylamino)methyl)cyclohexyl)-8-methylimidazo[1,5-a]pyrazin-1-yl)-2-methoxyphenyl)-4-methoxy-1-methyl-1H-indole-2-carboxamide]: the negative-log IC50 (pIC50) was not below 8.00. With `COc1cc(-c2nc([C@H]3CC[C@H](N4CC(F)(F)C4)CC3)n3ccnc(C)c23)ccc1N(C)C(=O)OC(C)C` [Example 41, Isopropyl 4-(3-((trans)-4-(3,3-difluoroazetidin-1-yl)cyclohexyl)-8-methylimidazo[1,5-a]pyrazin-1-yl)-2-methoxyphenyl(methyl)carbamate], the negative-log IC50 (pIC50) was 6.00 to 7.00. As for `COc1cc(-c2nc(N3CCn4c(nnc4C(F)(F)F)C3)n3ccnc(C)c23)ccc1NC(=O)c1cc2c(OC)cccc2n1C` [Example 37, 4-Methoxy-N-(2-methoxy-4-(8-methyl-3-(3-(trifluoromethyl)-5,6-dihydro-[1,2,4]triazolo[4,3-a]pyrazin-7(8H)-yl)imidazo[1,5-a]pyrazin-1-yl)phenyl)-1-methyl-1H-indole-2-carboxamide], the pIC50 is 7.00 to 8.00. The result for `CCC[C@H](C)OC(=O)Nc1ccc(-c2nc([C@H]3CC[C@@H](N4CC(F)(F)C4)CC3)n3ccnc(C)c23)cc1OC` [Example 26g, (S)-pentan-2-yl 4-(3-((cis)-4-(3,3-difluoroazetidin-1-yl)cyclohexyl)-8-methylimidazo[1,5-a]pyrazin-1-yl)-2-methoxyphenylcarbamate] reads not below 8.00.

Consider `COc1cc(-c2nc([C@H]3CC[C@H](N4CCN(C)CC4)CC3)n3ccnc(C)c23)ccc1NC(=O)c1cc2ccccc2n1C` [Example 33b, N-(2-methoxy-4-(8-methyl-3-((trans)-4-(4-methylpiperazin-1-yl)cyclohexyl)imidazo[1,5-a]pyrazin-1-yl)phenyl)-1-methyl-1H-indole-2-carboxamide 2,2,2-trifluoroacetate], for which the pIC50 was not below 8.00. To `CCC[C@H](C)OC(=O)Nc1ccc(-c2nc([C@H]3CC[C@H](N4CCN(C)CC4)CC3)n3ccnc(C)c23)cc1OC` [Example 33a, (S)-pentan-2-yl 2-methoxy-4-(8-methyl-3-((trans)-4-(4-methylpiperazin-1-yl)cyclohexyl)imidazo[1,5-a]pyrazin-1-yl)phenylcarbamate] belongs not below 8.00; to `COc1cc(-c2nc(Cn3ccnc3)n3ccnc(C)c23)ccc1NC(=O)c1cc2c(OC)cccc2n1C` [Example 15, N-(4-(3-((1H-imidazol-1-yl)methyl)-8-methylimidazo[1,5-a]pyrazin-1-yl)-2-methoxyphenyl)-4-methoxy-1-methyl-1H-indole-2-carboxamide], 6.00 to 7.00; to `COC(=O)N1CCC(c2nc(-c3ccc(NC(=O)c4cc5c(OC)cccc5n4C)c(OC)c3)c3c(C)nccn23)CC1` [Example 22, Methyl 4-(1-(3-methoxy-4-(4-methoxy-1-methyl-1H-indole-2-carboxamido)phenyl)-8-methylimidazo[1,5-a]pyrazin-3-yl)piperidine-1-carboxylate], not below 8.00. The result for `COc1cc(-c2nc(N3CCN(C4CCN(C(C)=O)CC4)CC3)n3ccnc(C)c23)ccc1NC(=O)c1cc2c(OC)cccc2n1C` [Example 32, N-(4-(3-(4-(1-Acetylpiperidin-4-yl)piperazin-1-yl)-8-methylimidazo[1,5-a]pyrazin-1-yl)-2-methoxyphenyl)-4-methoxy-1-methyl-1H-indole-2-carboxamide] reads not below 8.00; that for `COc1cc(-c2nc([C@H]3CC[C@@H](N4CC(F)(F)C4)CC3)n3ccnc(C)c23)ccc1NC(=O)c1cc2c(OC)cccc2n1C` [Example 10, N-(4-(3-((cis)-4-(3,3-difluoroazetidin-1-yl)cyclohexyl)-8-methylimidazo[1,5-a]pyrazin-1-yl)-2-methoxyphenyl)-4-methoxy-1-methyl-1H-indole-2-carboxamide], not below 8.00. To `COc1cc(-c2nc(N3CCN(C4CCOCC4)CC3)n3ccnc(C)c23)ccc1NC(=O)c1cc2c(OC)cccc2n1C` [Example 34, 4-Methoxy-N-(2-methoxy-4-(8-methyl-3-(4-(tetrahydro-2H-pyran-4-yl)piperazin-1-yl)imidazo[1,5-a]pyrazin-1-yl)phenyl)-1-methyl-1H-indole-2-carboxamide] belongs not below 8.00; to `COc1cc(-c2nc([C@@H]3CCN(C(=O)CN(C)C)C3)n3ccnc(C)c23)ccc1NC(=O)c1cc2c(OC)cccc2n1C` [Example 33e, (R)—N-(4-(3-(1-(2-(dimethylamino)acetyl)pyrrolidin-3-yl)-8-methylimidazo[1,5-a]pyrazin-1-yl)-2-methoxyphenyl)-4-methoxy-1-methyl-1H-indole-2-carboxamide], not below 8.00.

With `COc1cc(-c2nc(C3CCN(C(=O)CN)CC3)n3ccnc(C)c23)ccc1NC(=O)c1cc2ccccc2n1C` [Example 20, N-(4-(3-(1-(2-Aminoacetyl)piperidin-4-yl)-8-methylimidazo[1,5-a]pyrazin-1-yl)-2-methoxyphenyl)-1-methyl-1H-indole-2-carboxamide], the negative logarithm of the IC50 (pIC50) was not below 8.00. For the compound `CCC[C@H](C)OC(=O)Nc1ccc(-c2nc([C@H]3CC[C@@H](N4CCN(C(C)=O)CC4)CC3)n3ccnc(C)c23)cc1OC` [Example 26f, (S)-pentan-2-yl 4-(3-((cis)-4-(4-acetylpiperazin-1-yl)cyclohexyl)-8-methylimidazo[1,5-a]pyrazin-1-yl)-2-methoxyphenylcarbamate], the negative logarithm of the IC50 (pIC50) is not below 8.00. The result for `COc1cc(-c2nc([C@H]3CCN(C4CCOCC4)C3)n3ccnc(C)c23)ccc1NC(=O)c1cc2c(OC)cccc2n1C` [Example 36, (S)-4-Methoxy-N-(2-methoxy-4-(8-methyl-3-(1-(tetrahydro-2H-pyran-4-yl)pyrrolidin-3-yl)imidazo[1,5-a]pyrazin-1-yl)phenyl)-1-methyl-1H-indole-2-carboxamide] reads 7.00 to 8.00.

Turning to `COc1cc(-c2nc(C3CCC(=O)CC3)n3ccnc(C)c23)ccc1NC(=O)c1cc2c(OC)cccc2n1C` [Example 71, 4-Methoxy-N-(2-methoxy-4-(8-methyl-3-(4-oxocyclohexyl)imidazo[1,5-a]pyrazin-1-yl)phenyl)-1-methyl-1H-indole-2-carboxamide], the pIC50 was not below 8.00. The result for `COCCN(C)[C@H]1CC[C@@H](c2nc(-c3ccc(NC(=O)c4cc5c(OC)cccc5n4C)c(OC)c3)c3c(C)nccn32)CC1` [Example 26c, 4-methoxy-N-(2-methoxy-4-(3-((cis)-4-((2-methoxyethyl)(methyl)amino)cyclo-hexyl)-8-methylimidazo[1,5-a]pyrazin-1-yl)phenyl)-1-methyl-1H-indole-2-carboxamide] reads not below 8.00. The result for `COc1cc2cc(C(=O)Nc3ccc(-c4nc([C@H]5CC[C@H](N6CCN(C)CC6)CC5)n5ccnc(C)c45)cc3OC)n(C)c2cn1` [Example 75, 5-Methoxy-N-(2-methoxy-4-(8-methyl-3-((trans)-4-(4-methylpiperazin-1-yl)cyclohexyl)imidazo[1,5-a]pyrazin-1-yl)phenyl)-1-methyl-1H-pyrrolo[2,3-c]pyridine-2-carboxamide] reads not below 8.00.

The values above are taken from US8658794B2, “8-methyl-1-phenyl-imidazol[1,5-a]pyrazine compounds as Lck inhibitors and uses thereof” (Merck Sharp & Dohme B.V., priority 2010, dated 2014).
